Assay results reported in patent publication US20070198063A1, “Electrical devices and anti-scarring drug combinations” (priority 2005, published 2007).
Values after ≈ are worked out from the molar mass of the structure shown. Each block holds one compound with its values, some of them ahead of it.

Assays:
C. glabrata = settings: manganese compound as enhancer; cited from earlier work
[1] = solvent named in the value; cited from earlier work
S. epidermidis C621 = assay: MIC by microtitre broth dilution; assay type: cell-based; settings: Staphylococcus epidermidis; S. epidermidis C621 wt Gram+; Mueller Hinton broth, 37° C., 24 h; read-out: Minimum inhibitory concentration
Description: (§1) MIC assays were conducted essentially as described by Amsterdam, D. 1996, “Susceptibility testing of antimicrobials in liquid media”, p. 52-11, in Loman, V., ed. Antibiotics in laboratory medicine, 4th ed. Williams and Wilkins, Baltimore, Md.

S. pyogenes C721 = assay: MIC by microtitre broth dilution; assay type: cell-based; settings: Streptococcus pyogenes; S. pyogenes C721 wt Gram+; Todd Hewitt broth, 37° C., 24 h; read-out: Minimum inhibitory concentration
Description: as §1

S. aureus ATCC25923 C622 = assay: MIC by microtitre broth dilution; assay type: cell-based; settings: Staphylococcus aureus; S. aureus ATCC25923 C622 wt Gram+; Mueller Hinton broth, 37° C., 24 h; read-out: Minimum inhibitory concentration
Description: as §1

[2] = tested on: P. aeruginosa PAE/K799 H187; assay: MIC by microtitre broth dilution; assay type: cell-based; settings: Pseudomonas aeruginosa; P. aeruginosa PAE/K799 H187 wt Gram−; Mueller Hinton broth, 37° C., 24 h; read-out: Minimum inhibitory concentration
Description: as §1

collagenase = assay type: cell-based, calf; settings: primary chondrocytes, pre-incubation 6 hours, then IL-1 20 ng/ml 18 hours; 'as low as'
Description: Primary chondrocyte cultures were freshly isolated from calf cartilage. The cells were plated at 2.5×10^6 per ml in 100×20 mm culture dishes and incubated in Ham's F12 medium containing 5% FBS overnight at 37° C. The cells were starved in serum-free medium overnight and then treated with anti-microtubule agents at various concentrations for 6 hours. IL-1 (20 ng/ml) was then added to each plate and the plates incubated for an additional 18 hours. Total RNA was isolated by the acidified guanidine isothiocyanate method and subjected to electrophoresis on a denatured gel. Denatured RNA samples (15 μg) were analyzed by gel electrophoresis in a 1% denatured gel, transferred to a nylon membrane and hybridized with the ^32P-labeled collagenase cDNA probe. ^32P-labeled glyceraldehyde phosphate […] (GAPDH) cDNA as an internal standard to ensure roughly equal loading. The exposed films were scanned and quantitatively analyzed with IMAGEQUANT.

[3] = particularly in normal saline; cited from earlier work
ERK = settings: cited from earlier work
NFAT = settings: cited from earlier work
joint swelling = settings: chronic / adjuvant model; component alone (prednisolone at reduced dose); cited from earlier work
p38 and JNK = settings: cited from earlier work
NFkB and AP1 = settings: cited from earlier work
GRE reporter plasmid = settings: T cells; cited from earlier work
TNF-α = settings: acute in vivo model; component alone (prednisolone at reduced dose); cited from earlier work
stromelysin (MMP-3) = assay: IL-1 induced MMP-3 (stromelysin) mRNA expression in chondrocytes, Northern blot; assay type: cell-based
Description: (§2) Cells were treated with paclitaxel at various concentrations (10^−7 to 10^−5 M) for 24 hours, then treated with IL-1β (20 ng/ml) for additional 18 hours in the presence of paclitaxel. Total RNA was isolated, and the MMP-1 mRNA levels were determined by Northern blot analysis. The blots were subsequently stripped and reprobed with ^32P-radiolabeled rat GAPDH cDNA, which was used as a housekeeping gene. […] Quantitation of collagenase-1 and stromelysin-expression mRNA levels was conducted. The MMP-1 and MMP-3 expression levels were normalized with GAPDH.

AP-1 = assay: IL-1 induced AP-1 DNA binding activity, gel mobility shift assay; assay type: cell-based; settings: chondrocyte nuclear lysates, pretreated with paclitaxel 10^−7 to 10^−5 M for 24 hours
collagenase-1 (MMP-1) = assay: IL-1 induced MMP-1 (collagenase) mRNA expression in chondrocytes, Northern blot; assay type: cell-based
Description: as §2

[4] = tested on: Primary human smooth muscle cells; assay: Smooth muscle cell migration assay (Boyden chamber, rhPDGF-BB chemotaxis); assay type: cell-based; settings: chemotaxis in response to rhPDGF-BB 10 ng/ml, 4 hours
endo-exonuclease = settings: cited from earlier work
[5] = target: protein tyrosine phosphatase 1B (PTP1B) (Homo sapiens, UniProt P18031); settings: cited from earlier work
[6] = tested on: phosphatases of regenerating liver (PRL); settings: cited from earlier work
[7] = tested on: Candida spp., Aspergillus spp., Sporothrix schenckii, Penicillium marneffei, Malassezia furfur, Cryptococcus neoformans, Trichosporon spp. and …; settings: against most Candida spp., Aspergillus spp. and other listed fungi; cited from earlier work
[8] = 10^−5 M paclitaxel, 24 hours pretreatment
[9] = chondrocytes pretreated with paclitaxel for 24 hours

protein tyrosine phosphatase 1B (PTP1B), sequence (P18031 whole entry): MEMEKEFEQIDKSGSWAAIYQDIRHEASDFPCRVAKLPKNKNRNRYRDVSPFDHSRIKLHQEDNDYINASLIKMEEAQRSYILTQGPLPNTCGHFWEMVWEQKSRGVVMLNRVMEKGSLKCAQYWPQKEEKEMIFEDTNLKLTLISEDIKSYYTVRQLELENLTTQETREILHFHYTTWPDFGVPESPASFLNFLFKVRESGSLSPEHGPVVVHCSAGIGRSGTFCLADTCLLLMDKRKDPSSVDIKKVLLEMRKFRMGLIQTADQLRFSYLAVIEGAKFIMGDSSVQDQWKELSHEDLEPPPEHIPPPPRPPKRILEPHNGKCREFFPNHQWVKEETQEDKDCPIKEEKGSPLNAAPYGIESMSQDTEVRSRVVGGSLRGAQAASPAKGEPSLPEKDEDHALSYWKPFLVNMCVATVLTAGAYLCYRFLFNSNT

Compound: CCC(C)n1ncn(-c2ccc(N3CCN(c4ccc(OC[C@H]5CO[C@](Cn6cncn6)(c6ccc(Cl)cc6Cl)O5)cc4)CC3)cc2)c1=O (mixture of isomers) [itraconazole]
anti-fungal activity against C. glabrata in combination with a manganese compound (C. glabrata): enhances

Compound: CC(=O)N1CCN(c2ccc(OC[C@@H]3CO[C@@](Cn4ccnc4)(c4ccc(Cl)cc4Cl)O3)cc2)CC1 (racemic) [ketoconazole]
solubility, in words [1]: essentially insoluble in water

MIC (S. epidermidis C621): 0.1 µM (≈ 0.013 µg/mL) | MIC (S. pyogenes C721): 100 µM (≈ 13 µg/mL) | MIC (S. aureus ATCC25923 C622): 0.1 µM (≈ 0.013 µg/mL) | MIC [2]: 10 µM (≈ 1.3 µg/mL)
Compound: O=c1[nH]cc(F)c(=O)[nH]1 [5-fluorouracil]

Compound: [F][Al]([F])[F] [AIF3]
lowest concentration that prevented IL-1-induced collagenase expression (collagenase): 100 nM

Compound: C[C@@H]1[C@H](O)[C@@H](C)/C=C/C=C/C=C/C=C/C=C/C=C/C=C/[C@H](O[C@@H]2O[C@H](C)[C@@H](O)[C@H](N)[C@@H]2O)C[C@@H]2O[C@](O)(C[C@@H](O)C[C@@H](O)[C@H](O)CC[C@@H](O)C[C@@H](O)CC(=O)O[C@H]1C)C[C@H](O)[C@H]2C(=O)O [Amphotericin B, amphotericin B]
solubility, in words [1]: poorly water soluble | stability in solution [3]: unstable in solution

Compound: CN(C)/N=N/c1[nH]cnc1C(N)=O [Dacarbazine, dacarbazine]
solubility, in words [1]: poorly soluble in water and ethanol

Compound: N#CC1=C(N)Oc2c(ccc3ccccc23)C1c1cccc([N+](=O)[O-])c1 (stereo not shown) [LY290181]
lowest concentration that prevented IL-1-induced collagenase expression (collagenase): 100 nM

Compound: COc1c2occc2cc2ccc(=O)oc12 [Methoxsalen, methoxsalen]
solubility, in words [1]: very poorly soluble in water, slightly soluble in alcohol, and readily soluble in propylene glycol

Compound: N=C(N)c1ccc(OCCCCCOc2ccc(C(=N)N)cc2)cc1 [Pentamidine isethionate, pentamidine isethionate]
solubility, in words [1]: soluble in water and glycerin and insoluble in ether, acetone, and chloroform

Compound: C[N+]1(CCCCC[N+]2(C)CCCC2)CCCC1 [Pentolinium ditartrate, pentolinium]
solubility, in words [1]: highly soluble in water

Compound: Nc1ccc(/N=N/c2ccccc2)c(N)n1 [Phenazopyridine base, phenazopyridine]
solubility, in words [1]: slightly soluble in water and alcohol

Compound: NNCCc1ccccc1 [Phenelzine, phenelzine]
solubility, in words [1]: highly soluble in water and very poorly soluble in alcohol

Compound: NC(=O)c1ncn([C@@H]2O[C@H](CO)[C@@H](O)[C@H]2O)n1 [Ribavirin, ribavirin]
solubility, in words [1]: only slightly soluble in alcohol

Compound: Clc1ccc2c(c1)C(N1CCNCC1)=Nc1ccccc1O2 [amoxapine]
effect on ERK activation (ERK): unaffected | effect on NFAT activation, translocation and transactivation (NFAT): block | effect of the individual components alone on joint swelling (joint swelling): modest or no benefit | effect on p38 and JNK activation (p38 and JNK): Inhibition | effect on NFkB and AP1 activation (NFkB and AP1): partially inhibits | potentiation of prednisolone's ability to transactivate a GRE reporter plasmid (GRE reporter plasmid): does not potentiate | effect of the individual components alone on TNF-α production (TNF-α): modest or no benefit

Compound: CC[C@@]1(O)C(=O)OCc2c1cc1n(c2=O)Cc2cc3ccccc3nc2-1 [camptothecin]
MIC (S. epidermidis C621): 100 µM (≈ 34.8 µg/mL)

Compound: CC[C@H](C)C[C@H](C)CCCCCCCCC(=O)N[C@H]1C[C@@H](O)[C@@H](NCCN)NC(=O)[C@@H]2[C@@H](O)CCN2C(=O)[C@H]([C@H](O)CCN)NC(=O)[C@H]([C@H](O)[C@@H](O)c2ccc(O)cc2)NC(=O)[C@@H]2C[C@@H](O)CN2C(=O)[C@H]([C@@H](C)O)NC1=O [caspofungin]
anti-fungal activity against C. glabrata in combination with a manganese compound (C. glabrata): enhances

Compound: [2H]O[2H] [deuterium oxide]
lowest concentration that prevented IL-1-induced collagenase expression (collagenase): 100 nM

Compound: OC(Cn1cncn1)(Cn1cncn1)c1ccc(F)cc1F [fluconazole]
anti-fungal activity against C. glabrata in combination with a manganese compound (C. glabrata): enhances

Compound: CCOC(=O)CN [glycine ethyl ester]
lowest concentration that prevented IL-1-induced collagenase expression (collagenase): 100 nM

IL-1 induced AP-1 binding activity to oligonucleotides (AP-1): decreased | collagenase mRNA levels (IL-1 induced) (collagenase-1 (MMP-1); [8]): complete inhibition | collagenase mRNA levels (IL-1 induced) (collagenase-1 (MMP-1); [9]): significantly reduced | IC50 [4]: 760 pM
Compound: CC(=O)O[C@H]1C(=O)[C@@]2(C)[C@H]([C@H](OC(=O)c3ccccc3)[C@]3(O)C[C@H](OC(=O)[C@H](O)[C@@H](NC(=O)c4ccccc4)c4ccccc4)C(C)=C1C3(C)C)[C@]1(OC(C)=O)CO[C@@H]1C[C@@H]2O [paclitaxel]
stromelysin mRNA levels (IL-1 induced) (stromelysin (MMP-3); [8]): complete inhibition | stromelysin mRNA levels (IL-1 induced) (stromelysin (MMP-3); [9]): significantly reduced | concentration inhibiting stromelysin expression in vitro (stromelysin (MMP-3); chondrocytes, IL-1 induced): 10^−6 M | concentration inhibiting collagenase expression in vitro (collagenase-1 (MMP-1); chondrocytes, IL-1 induced): 10^−6 M

Compound: N=C(N)c1ccc(OCCCCCOc2ccc(C(=N)N)cc2)cc1 [pentamidine]
inhibition of the activity of endo-exonuclease (endo-exonuclease): inhibit | inhibition of protein tyrosine phosphatase 1B (PTP1B) [5]: effective inhibitor | inhibition of the oncogenic phosphatases of regenerating liver (PRL) [6]: potent inhibitor

Compound: CN(C/C=C/C#CC(C)(C)C)Cc1cccc2ccccc12.Cl [terbinafine]
anti-fungal activity against C. glabrata in combination with a manganese compound (C. glabrata): enhances | in vitro anti-fungal activity [7]: has activity

Compound: Nc1ncnc2c1ccn2[C@@H]1O[C@H](CO)[C@@H](O)[C@H]1O [tubercidin]
lowest concentration that prevented IL-1-induced collagenase expression (collagenase): 100 nM

Compound: epothilone
lowest concentration that prevented IL-1-induced collagenase expression (collagenase): 100 nM

Compound: ethylene glycol bis-(succinimidylsuccinate)
lowest concentration that prevented IL-1-induced collagenase expression (collagenase): 100 nM

Compound: hexylene glycol
lowest concentration that prevented IL-1-induced collagenase expression (collagenase): 100 nM
